Measurements from US20090131356A1, “miR-15, miR-26, miR-31, miR-145, miR-147, miR-188, miR-215, miR-216, miR-331, mmu-miR-292-3P REGULATED GENES AND PATHWAYS AS TARGETS FOR THERAPEUTIC INTERVENTION” (ASURAGEN, INC., priority 2006, published 2009).

Experiments:
A549 and H1299 cells = experiment: Dose-dependent Alamar Blue proliferation assay (0 pM to 3 nM); format: cell-based, human; conditions: for % proliferation: normalized to mock-transfected cells (0 pM miRNA)
Experimental: The inventors determined sensitivity and specificity of hsa-miR-147 by administering hsa-miR-147 or negative control miRNA at increasing concentrations, ranging from 0 pM to 3 nM. Delivery of miRNA and cellular proliferation of A549 and H1299 cells was assessed as described above. Alamar Blue values were normalized to values obtained from mock-transfected cells (0 pM=100% proliferation). As shown in FIG. 3 and Table 8, increasing amounts of negative control miRNA had no effect on cellular proliferation of A549 or H1299 cells. In contrast, the growth-inhibitory phenotype of hsa-miR-147 is dose-dependent and correlates with increasing amounts of hsa-miR-147. Hsa-miR-147 induces a therapeutic response at concentrations as low as 300 pM.

[1] = test system: human prostate cancer cells PPC-1, Du145 and RWPE2; experiment: Alamar Blue proliferation assay, average over prostate cancer cell lines; format: cell-based; conditions: 30 nM, 4-7 days post-transfection; average of PPC-1, Du145, RWPE2; vs negative control miRNA (100%)
Source text: The inventors assessed the therapeutic effect of hsa-miR-147 for prostate cancer by using 4 individual human prostate cancer cell lines. To measure cellular proliferation of prostate cancer cells, the following prostate cancer cell lines were used: PPC-1 and PC3, derived from a bone metastasis; Du145, derived from a brain metastasis; RWPE2, derived from prostate cells immortalized by human papillomavirus 18 and transformed by the K-RAS oncogene (Bello et al., 1997; Stone et al., 1978; Brothman et al., 1991). PC3, PPC-1, and Du145 cells lack expression of the prostate-specific antigen (PSA) and are independent of androgen receptor (AR) signaling. In contrast, RWPE2 cells test positive for PSA and AR.
PPC-1, Du145 and RWPE2 cells were transfected with synthetic hsa-miR-147 (Pre-miR™-hsa-miR-147, Ambion cat. no. AM17100) or negative control miRNA (NC; Pre-miR™ microRNA Precursor Molecule-Negative Control #2; Ambion cat. no. AM17111) in a 96-well format using a lipid-based transfection reagent. […] Proliferation was assessed 4-7 days post-transfection using Alamar Blue™ (Invitrogen) following the manufacturer's instructions. […] Fluorescent light units (FLU) were measured after 3 hours, normalized to the control, and plotted as percent change in proliferation. […]

HCC2935 cells = experiment: Alamar Blue proliferation assay, HCC2935; format: cell-based, human; conditions: 30 nM, normalized to negative control miRNA (100% proliferation)
Source text: The inventors assessed the therapeutic effect of hsa-miR-147 for lung cancer by using 12 individual lung cancer cell lines. To measure cellular proliferation of lung cancer cells, the following parental non-small cell lung cancer (NSCLC) cells were used: cells derived from lung adenocarcinoma (A549, H1299, H522, H838, Calu-3, HCC827, HCC2935), cells derived from lung squamous cell carcinoma (H520, H226), cells derived from lung adenosquamous cell carcinoma (H596), cells derived from lung bronchioalveolar carcinoma (H1650), and cells derived from lung large cell carcinoma (H460). In addition to these parental cell lines, highly metastatic NSCLC cells were used that stably express the firefly luciferase gene: A549-luc, H460-luc, HCC827-luc, H1650-luc, H441-luc. Unlike the parental cell lines, these metastatic cells readily migrate to distant sites of the test animal and form metastases upon subcutaneous, orthotopic, or intravenous injection. Synthetic hsa-miR-147 or negative control miRNA was delivered via lipid-based transfection into A549, H1299, H522, H838, Calu-3, HCC827, HCC2935, H520, H596, H1650, H460, A549-luc, H460-luc, HCC827-luc, H1650-luc, H441-luc cells and via electroporation into H226 cells. […]

Substance: hsa-miR-147: Synthetic pre-miR-147 (Ambion AM17100; Dharmacon in vivo); mature sequence GUGUGUGGAAAUGCUUCUGC, MIMAT0000251, SEQ ID NO:114 (synthetic pre-miR (Ambion/Dharmacon), chemistry not given here; listed as Homo sapiens)
- % proliferation (A549 and H1299 cells; A549 Cells, 3 pM): 104.77%
- % proliferation (A549 and H1299 cells; A549 Cells, 30 pM): 99.22%
- % proliferation (A549 and H1299 cells; A549 Cells, 300 pM): 88.24%
- % proliferation (A549 and H1299 cells; A549 Cells, 3,000 pM): 75.78%
- % proliferation (A549 and H1299 cells; H1299 Cells, 3 pM): 93.08%
- % proliferation (A549 and H1299 cells; H1299 Cells, 30 pM): 88.20%
- % proliferation (A549 and H1299 cells; H1299 Cells, 300 pM): 81.82%
- % proliferation (A549 and H1299 cells; H1299 Cells, 3,000 pM): 69.70%
- lowest concentration inducing a therapeutic response (A549 and H1299 cells; concentrations 0 pM to 3 nM, normalized to mock-transfected cells): 300 pM
- inhibition of cellular proliferation, on average [1]: 27.48%
- % proliferation (HCC2935 cells): 60.35%
